Values of other authors in patent US12279614B2, “Photo-polymerizable, universal antimicrobial coating to produce high-performing, multi-functional face masks” (The Governors of the University of Alberta, priority 2022, dated 2025).

Test system: Human Adenovirus Type 8
Details: incubation time 1 hr

Benzalkonium chloride
Inactivation efficiency: 1.01 log reduction
